{
  "source": "patent US12685320B2",
  "about": "“Food processing oxidation treatment forumlations and methods” (Clean Chemistry, Inc., priority 2023, dated 2026)",
  "key": {"Salmonella spp.": {"test_system": "Salmonella spp.", "assay": "Poultry chiller tank (pre-chiller and red water main chiller): Salmonella on inoculated poultry thighs", "assay_type": "cell-based, S. Infantis, S. Typhimurium, S. Enteritidis", "conditions": "for Recovered average Log10 CFU/g: pH>8.5", "description": "(§1) A standardized test was conducted to compare the antimicrobial efficacy, residual decay, and effect on solution pH of peracetate and peracetic acid in reducing Salmonella spp. on poultry as a processing method directed to control microbial growth or inactivate microorganisms in food products during processing to lower risk of foodborne pathogens or spoilage microorganisms. The objective of this study was to determine the efficacy of peracetate and peracetic acid treatments for reducing Salmonella spp. on poultry thighs in a treatment bath under conditions simulating pre-chiller and red water main chiller applications. To mimic these applications in a poultry processing facility, target concentrations were determined to be 150 ppm of either peracetate (as PAA equivalents) or peracetic acid in the simulated pre-chiller application and 75 ppm of either peracetate (as PAA equivalents) or peracetic acid in the simulated red water main chiller application. Both applications targeted a pH>8.5 to simulate the intentional alkalinity of chillers in poultry processing facilities.\n(§2) The pH, temperature, and residual antimicrobial concentration (measured as either peracetate or peracetic acid) were monitored through the duration of both applications. […]\nThe inoculum used in this study was prepared from three reference strains of Salmonella: S. Infantis (Reference Strain ID: ATCC 51741), S. Typhimurium (Reference Strain ID: ATCC 13311), and S. Enteritidis (Reference Strain ID: ATCC 13076). […] Colonies from each strain were placed into individual tubes of buffered peptone water (BPW) determined using a spectrophotometer (ThermoFisher Scientific, 1700/0512). […] Post incubation, colonies were counted, and log transformed reported. […]\nPrior to inoculation, the average weight of the poultry thighs used in this study was determined to be 150 grams. […]"}, "[1]": {"assay": "Poultry chiller tank: residual decay and odor of antimicrobial baths", "assay_type": "physicochemical", "description": "as §1, with “Both applications targeted a pH>8.5 to simulate the intentional alkalinity of chillers in poultry processing facilities.” left out\nas §2\nDuring the pre-chiller and main chiller treatments, the temperature, pH, and antimicrobial concentrations were monitored and recorded every 10 minutes. […] After incubating, colonies were counted, and log transformed."}},
  "data": [
    {"smiles": "CC(=O)OO", "note": "[peracetic acid]", "values": [
      {"measurement": "Recovered average Log10 CFU/g", "setting": "Salmonella spp.; main chiller treatment (after pre-chiller), target 75 ppm, untreated main chiller control 4.13", "value": 3.45, "unit": "Log10 CFU/g"},
      {"measurement": "difference in antimicrobial effectiveness of peracetic acid and peracetate", "setting": "Salmonella spp.; pre-chiller and main chiller", "value": "No significant difference"},
      {"measurement": "Recovered average Log10 CFU/g", "setting": "Salmonella spp.; pre-chiller treatment, target 150 ppm, untreated 5.46, untreated pre-chiller control 4.76", "value": 3.65, "unit": "Log10 CFU/g"},
      {"measurement": "additional antimicrobial required to maintain minimum concentration", "setting": "[1]; pre-chiller application", "value": 13.0, "unit": "mL"},
      {"measurement": "additional antimicrobial required to maintain minimum concentration", "setting": "[1]; red water main chiller application", "value": 26.0, "unit": "mL"}
    ]}
  ]
}
